According to US9394297B2, “Amides as pim inhibitors” (AMGEN INC., priority 2012, dated 2016):
Read-outs that look alike come from different tables or passages of the source. Values belong to the compound of their own block, whether it stands above or below them.

How the values were obtained:
[1] = target: T1, Pim-1 (Homo sapiens (Human), UniProt P11309); experiment: Pim-Mn enzyme assay (HTRF, 384-well), Pim-1; type: biochemical; conditions: read-out: Pim-1-Mn IC50 IP
[2] = target: Pim-2 (Homo sapiens (Human), UniProt Q9P1W9); experiment: Pim-Mn enzyme assay (HTRF, 384-well), Pim-2; type: biochemical; conditions: Pim-2 enzyme 0.5 pM, ATP 1.5 μM, BAD (S112) 0.5 μM, HTRF, 22-point curve; read-out: Pim-2-Mn IC50 IP
[3] = tested on: KMS-12-BM cell lines; experiment: KMS12 #2 flow cytometry assay (phospho-BAD Ser112); type: cell-based; conditions: Homo sapiens, KMS-12-BM, 110 min, read-out: KMS-12-Flow IC50 IP
[4] = tested on: KMS-12-BM myeloma cell line; experiment: Pim KMS-12 cell assay (phospho-BAD S112 / total BAD, MSD)
[5] = target: T1, Pim-1; experiment: Pim enzyme assay (HTRF, 96-well), Pim-1; type: biochemical; conditions: full length recombinant Pim-1, biotinylated-BAD (S112) peptide, 10-point curve, 2 h RT, read-out: Pim-1 IC50 IP
Description: These cDNAs were used as templates in PCR reactions to produce full-length DNA clones of the PIMs. […] PCR products were digested with BclI and EcoRI for Pim-1 and BamHI and EcoRI for Pim-2 and ligated into a modified baculovirus transfer vector (pFastBac1) cleaved with BamHI and EcoRI. For bacterial expression, the same cleaved PCR products encoding Pim-1 or Pim-2 were ligated into a modified E. coli expression vector pET28(a) cleaved with BamHI and EcoRI. Amino-terminal hexahistidine tags followed by a thrombin cleavage site were previously added to the vectors using standard methods of molecular biology.
Recombinant baculoviruses expressing Pim-1 or Pim-2 were made using standard methods (Fastbac manual, Invitrogen, Carlsbad, Calif.). […] Cells were harvested by centrifugation and frozen at −80 C. For E. coli expression, cells carrying pET28-His6-Th-Pim-1 or pET28-His6-Th-Pim-2 were picked from a single colony and grown o/n in LB media. The o/n culture was used to inoculate a 2 liter flask with 500 mL media. This was grown o/n and used to inoculate 15-20 liters of Terrific Broth in a New Brunswick Scientific fermentor. The E. coli were grown at 37° C. to and OD600 >1.6. The temperature was dropped to 18° C. and o/n expression was induced with 0.5 mM IPTG. Cells were harvested by centrifugation and frozen at −80° C.
The slurry was centrifuged at 1,000×g for 5 min, the supernatant decanted, and the resin suspended in 40 mL of lysis wash buffer (lysis buffer at 0.75 M NaCl). This step was repeated 3× and the resin was transferred to a 2.5 cm glass column. Ten column volumes of wash buffer (0.05 M HEPES, pH 8.0, 0.1 M NaCl, 0.01 M 2-mercaptoethanol, 10%(w/v) glycerol) were applied to the resin followed by 10 column volumes of elution buffer (0.05 M HEPES, pH 8.0, 0.25 M NaCl, 0.01 M 2-mercaptoethanol, 10%(w/v) glycerol, 0.1 M imidazole). Fractions were analyzed by SDS-PAGE and those containing the protein of interest were pooled and concentrated. The concentrated protein was applied to an Amersham Superdex 75 (XK 26/60) column equilibrated in 0.025 M Tris-HCl, pH 7.5, 0.1 M NaCl, 0.01 M 2-mercaptoethanol, 10% (w/v) glycerol. […] Fractions containing the monomeric protein of interest were pooled, concentrated to ˜2 mg/mL, and stored at −80° C.
The phosphorylation of biotinylated-BAD (S112) peptide by full length recombinant Pim-1, Pim-2, or Pim-3 protein was detected with streptavidin:Allophycocyanin (APC) conjugate and a europium (Eu) labeled antibody directed against phosphorylated-BAD (S112). […] The fluorescence is directly proportional to the amount of phosphorylated BAD peptide present in the reaction. […] A reference compound was included on each assay plate in order to validate that plate; on one plate of every assay run, two additional reference compounds were included. The final buffer conditions were as follows: 60 mM Hepes, pH 7.0, 0.05% BSA, 2 mM DTT. Incubations were carried out at RT (22° C.) for 2 h for Pim-1, 1 hour and 30 min for Pim-3, and 45 min for Pim-2. The reaction was stopped by the addition of 3 mM EDTA, and fluorescence was measured by an HTRF® Rubystar microplate reader. For each plate, percent of control (POC) values were calculated for each well. Values for the IC50 IP were estimated using a standard 4-parameter logistic model.

[6] = Pim-1 enzyme 5 pM, ATP 1.5 μM, BAD (S112) 0.5 μM, HTRF, 22-point curve
[7] = Homo sapiens, KMS-12-BM, read-out: KMS-12-BM IC50 IP
[8] = read-out: KMS-12-BM IC50 IP, KMS-12-BM cells, phospho-BAD (S112) vs total BAD, 1 hour 50 min with compound
[9] = Homo sapiens, KMS-12-BM, read-out: KMS-12-BM IC50 IP, KMS-12-BM cells, phospho-BAD (S112) vs total BAD, 1 hour 50 min with compound

T1 sequence (P11309 whole entry): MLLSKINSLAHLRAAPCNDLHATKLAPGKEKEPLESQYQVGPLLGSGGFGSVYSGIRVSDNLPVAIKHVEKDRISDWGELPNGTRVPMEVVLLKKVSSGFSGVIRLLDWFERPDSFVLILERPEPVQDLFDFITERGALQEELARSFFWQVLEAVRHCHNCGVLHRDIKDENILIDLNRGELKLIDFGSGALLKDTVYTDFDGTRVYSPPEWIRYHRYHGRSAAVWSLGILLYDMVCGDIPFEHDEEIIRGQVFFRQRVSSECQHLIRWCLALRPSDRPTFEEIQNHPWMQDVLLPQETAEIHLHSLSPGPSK
Chain of Pim-2 (Q9P1W9 whole entry): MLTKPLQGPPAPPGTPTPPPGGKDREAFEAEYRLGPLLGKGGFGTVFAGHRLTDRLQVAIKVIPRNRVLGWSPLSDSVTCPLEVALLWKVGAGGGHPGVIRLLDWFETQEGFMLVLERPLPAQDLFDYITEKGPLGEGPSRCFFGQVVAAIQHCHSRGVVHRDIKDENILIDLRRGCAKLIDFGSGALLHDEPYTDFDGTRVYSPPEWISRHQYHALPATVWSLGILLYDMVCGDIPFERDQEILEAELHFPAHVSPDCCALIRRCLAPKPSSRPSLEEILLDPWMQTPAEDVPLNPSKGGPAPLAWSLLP

IC50 [5]: 60.9 nM
Compound: CCC1CNC(=O)c2cc(-c3cccc4ccc(Cl)nc34)[nH]c21 (racemic) [Example 22, rac-2-(2-chloroquinolin-8-yl)-7-ethyl-6,7-dihydro-1H-pyrrolo[3,2-c]pyridin-4(5H)-one]

IC50 [1, 6]: 21.1 nM
IC50 [2]: 278 nM
IC50 [5]: 41.8 nM
Compound: CC(C)CC1CNC(=O)c2cc(-c3cccc4cccnc34)[nH]c21 (racemic) [Example 125, rac-7-isobutyl-2-(quinolin-8-yl)-6,7-dihydro-1H-pyrrolo[3,2-c]pyridin-4(5H)-one]

IC50 [5]: 269 nM
Compound: O=C(NC1CC1)c1ccc2cccc(-c3cc4c([nH]3)CCNC4=O)c2n1 [Example 94, N-cyclopropyl-8-(4-oxo-4,5,6,7-tetrahydro-1H-pyrrolo[3,2-c]pyridin-2-yl)quinoline-2-carboxamide]

IC50 [5]: 227 nM
Compound: CN1CCN(C(=O)c2ccc3cccc(-c4cc5c([nH]4)CCNC5=O)c3n2)CC1 [Example 97, 2-(2-(4-methylpiperazine-1-carbonyl)quinolin-8-yl)-6,7-dihydro-1H-pyrrolo[3,2-c]pyridin-4(5H)-one]

IC50 [5]: 3.2 nM
IC50 [4, 8]: 5210 nM
Compound: CCC1CNC(=O)c2cc(-c3cccc4cc(C)c(Nc5ccccc5)nc34)[nH]c21 (single isomer, unassigned) [Example 118, 7-ethyl-2-(3-methyl-2-(phenylamino)quinolin-8-yl)-6,7-dihydro-1H-pyrrolo[3,2-c]pyridin-4(5H)-one]

IC50 [1, 6]: 25 nM
IC50 [5]: 44.6 nM
IC50 [4, 9]: 621 nM
Compound: Cc1nc2cccc(-c3cc4n(c3)CCNC4=O)c2nc1NC1CC1 [Example 233, 7-(3-(cyclopropylamino)-2-methylquinoxalin-5-yl)-3,4-dihydropyrrolo[1,2-a]pyrazin-1(2H)-one 2,2,2-trifluoroacetate]

IC50 [1, 6]: 0.1 nM
IC50 [2]: 0.1 nM
IC50 [4, 9]: 86.3 nM
Compound: CCN(c1cnc2cccc(-c3cc4c([nH]3)CCNC4=O)c2n1)C(C)(C)C [Example 220, 2-(3-(tert-butyl(ethyl)amino)quinoxalin-5-yl)-6,7-dihydro-1H-pyrrolo[3,2-c]pyridin-4(5H)-one]

IC50 [5]: 1 nM
IC50 [4, 9]: 2820 nM
Compound: CCC1CNC(=O)c2cc(-c3cccc4cc(C)c(Nc5ccccc5)nc34)[nH]c21 (racemic) [Example 250, rac-7-ethyl-2-(3-methyl-2-(phenylamino)quinolin-8-yl)-6,7-dihydro-1H-pyrrolo[3,2-c]pyridin-4(5H)-one]

IC50 [1, 6]: 3.3 nM
IC50 [2]: 0.8 nM
IC50 [4, 8]: 199 nM
Compound: 2′-(3-(cyclopropylamino)-6-fluoro-2-methylquinoxalin-5-yl)-1′H-spiro[cyclopropane-1,6′-pyrrolo[3,4-b]pyrrol]-4′(5′H)-one [Example 283]

The next lines start with the compound.

Compound: Cc1nc2ccc(F)c(-c3cc4c([nH]3)CCNC4=O)c2nc1NC(C)(C)C [Example 286, 2-(3-(tert-butylamino)-6-fluoro-2-methylquinoxalin-5-yl)-6,7-dihydro-1H-pyrrolo[3,2-c]pyridin-4(5H)-one]
IC50 [1, 6]: 0.289 nM
IC50 [2]: 0.305 nM
IC50 [3]: 28.2 nM
IC50 [4, 7]: 143 nM

Compound: O=C1NCCc2[nH]c(-c3c(F)ccc4ccc(NC5CCCCC5)nc34)cc21 [Example 90, 2-(2-(cyclohexylamino)-7-fluoroquinolin-8-yl)-6,7-dihydro-1H-pyrrolo[3,2-c]pyridin-4(5H)-one]
IC50 [5]: 340 nM

Compound: Cc1nc2cccc(-c3cc4c([nH]3)CCNC4=O)c2nc1NC1CCCCCC1 [Example 134, 2-(3-(cycloheptylamino)-2-methylquinoxalin-5-yl)-6,7-dihydro-1H-pyrrolo[3,2-c]pyridin-4(5H)-one]
IC50 [5]: 8.9 nM

Compound: Cn1cc(-c2cccc3ccc(Nc4ccccc4)nc23)cc1C(N)=O [Example 164, 1-methyl-4-(2-(phenylamino)quinolin-8-yl)-1H-pyrrole-2-carboxamide]
IC50 [5]: 243 nM

Compound: CCC1CNC(=O)c2cc(-c3cccc4ccc(Oc5ccccc5)nc34)[nH]c21 (racemic) [Example 23, rac-7-ethyl-2-(2-phenoxyquinolin-8-yl)-6,7-dihydro-1H-pyrrolo[3,2-c]pyridin-4(5H)-one]
IC50 [5]: 14.1 nM

Compound: O=C1NCCn2cc(-c3cccc4ccc(C(=O)N5CCCC5)nc34)cc21 [Example 168, 7-(2-(pyrrolidine-1-carbonyl)quinolin-8-yl)-3,4-dihydropyrrolo[1,2-a]pyrazin-1(2H)-one]
IC50 [5]: 608 nM

Compound: CN(c1cnc2cccc(-c3cc4c([nH]3)CCNC4=O)c2n1)C(C)(C)C [Example 215, 2-(3-(tert-butyl(methyl)amino)quinoxalin-5-yl)-6,7-dihydro-1H-pyrrolo[3,2-c]pyridin-4(5H)-one]
IC50 [1, 6]: 0.6 nM
IC50 [2]: 0.7 nM
IC50 [4, 7]: 153 nM

Compound: CCC1CNC(=O)c2cc(-c3cccc4cc(C)c(Nc5ccccc5)nc34)[nH]c21 (single isomer, unassigned) [Example 117, 7-ethyl-2-(3-methyl-2-(phenylamino)quinolin-8-yl)-6,7-dihydro-1H-pyrrolo[3,2-c]pyridin-4(5H)-one]
IC50 [5]: 0.6 nM
IC50 [4, 9]: 3150 nM

Compound: O=C(Nc1ccccc1)c1ccc2cccc(-c3cc4c([nH]3)CCNC4=O)c2n1 [Example 95, 8-(4-oxo-4,5,6,7-tetrahydro-1H-pyrrolo[3,2-c]pyridin-2-yl)-N-phenylquinoline-2-carboxamide]
IC50 [5]: 222 nM

Compound: Cc1nc2cccc(-c3cc4c([nH]3)CCNC4=O)c2nc1NC1(CO)CC1 [Example 277, 2-(3-((1-(hydroxymethyl)cyclopropyl)amino)-2-methyl-5-quinoxalinyl)-1,5,6,7-tetrahydro-4H-pyrrolo[3,2-c]pyridin-4-one]
IC50 [1, 6]: 1 nM
IC50 [2]: 0.4 nM
IC50 [4, 9]: 169 nM

Compound: Cc1nc2cccc(-c3cc4c([nH]3)CCNC4=O)c2nc1N[C@H]1CCCNC1 [Example 76, (S)-2-(2-methyl-3-(piperidin-3-ylamino)quinoxalin-5-yl)-6,7-dihydro-1H-pyrrolo[3,2-c]pyridin-4(5H)-one]
IC50 [1, 6]: 8.1 nM
IC50 [2]: 27 nM
IC50 [4, 9]: 6130 nM

Compound: CC1(C)COCCN1c1cnc2cccc(-c3cc4c([nH]3)CCNC4=O)c2n1 [Example 213, 2-(3-(3,3-dimethylmorpholino)quinoxalin-5-yl)-6,7-dihydro-1H-pyrrolo[3,2-c]pyridin-4(5H)-one]
IC50 [1]: 1.6 nM
IC50 [2]: 3.2 nM
IC50 [4, 9]: 227 nM

Compound: COCCNC(=O)c1ccc2cccc(-c3cc4c([nH]3)CCNC4=O)c2n1 [Example 96, N-(2-methoxyethyl)-8-(4-oxo-4,5,6,7-tetrahydro-1H-pyrrolo[3,2-c]pyridin-2-yl)quinoline-2-carboxamide]
IC50 [5]: 283 nM
